# Measured values as given in publication PMC6987146, “Potent inhibition of HIV replication in primary human cells by novel synthetic polyketides inspired by Aureothin” (Scientific Reports, 2020).
# Assays:
# [1] = biological target: T1, recombinant HIV-1 Protease (Human immunodeficiency virus type 1 group M subtype B, UniProt P04585); assay: HIV Protease Activity Assay (fluorogenic substrate); assay type: biochemical; conditions: 10 µM
# T1 construct: 100 ng recombinant HIV-1 Protease protein (Abcam) was incubated with compounds; purchased Abcam
# Description: HIV Protease Activity Assay. 100 ng recombinant HIV-1 Protease protein (Abcam) was incubated with compounds diluted in HIV Protease Activity Assay Buffer (0.1 M sodium acetate, 1.0 M sodium chloride, 1.0 mM ethylenediaminetetraacetic acid (EDTA), 1.0 mM dithiothreitol (DTT), 10% dimethyl sulfoxide (DMSO), 1 mg/ml bovine serum albumin (BSA), pH 7.4) for 1 h at room temperature in the dark. After the designated incubation time the mixtures were added to a 2.5 µM solution of HIV Protease Substrate 1 (Sigma-Aldrich) in HIV Protease Activity Assay Buffer prepared in black 96-well plates. The substrate harbours the fluorophore EDANS (5-(2-aminoethylamino)-1-naphthalene sulfonate) and the acceptor chromophore DABCYL (4’-dimethylaminoazobenzene-4-carboxylate) on opposite sides of the cleavage site (Tyr-Pro). Cleavage of the substrate by the HIV-1 protease results in separation of DABCYL and EDANS, eliminating the quenching effects on EDANS fluorescence at 490 nm. After an additional incubation time of 20 min at 37 °C the increase in fluorescence was measured using a fluorescence microplate reader at an excitation filter wavelength of 340 nm and an emission filter wavelength of 490 nm. Saquinavir was used as reference compound.
# [2] = biological target: T2, recombinant HIV-1 reverse transcriptase (Human immunodeficiency virus type 1 group M subtype B, UniProt P04585); assay: HIV Reverse Transcriptase Activity Assay (colorimetric kit); assay type: biochemical; conditions: 10 µM
# T2 construct: using 4 ng recombinant HIV-1 reverse transcriptase; purchased Roche
# Description: HIV Reverse Transcriptase Activity Assay. To determine the inhibitory effect of test compounds against HIV reverse transcriptase activity, the colorimetric Reverse Transcriptase Assay Kit (Roche) was performed according to manufacturer’s protocol using 4 ng recombinant HIV-1 reverse transcriptase. Efavirenz was used as reference compound.
smiles,measurement,setting,value
COc1oc(C2C/C(=C/C(C)=C/c3ccc(C(F)(F)F)cc3)CO2)c(C)c(=O)c1C (centres unmarked) [compound #7],inhibitory effect on Protease activity,[1],no inhibitory effects
same,inhibitory effect on Reverse transcriptase activity,[2],no inhibitory effects
